Data from PubChem BioAssay (NCI).
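Test compounds were applied to cells in 96-well plates for 48 hours at 5 doses. At the TGI there is no net growth.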

What was measured:
Assay in all cases: growth of human tumour cells (NCI), 48 h
ACHN renal = tested on: ACHN renal
T-47D breast = tested on: T-47D breast
BT-549 breast = tested on: BT-549 breast
SN12C renal = tested on: SN12C renal
HOP-92 NSCLC = tested on: HOP-92 NSCLC
OVCAR-3 ovarian = tested on: OVCAR-3 ovarian
SK-MEL-5 melanoma = tested on: SK-MEL-5 melanoma
786-0 renal = tested on: 786-0 renal
COLO 205 colon = tested on: COLO 205 colon
HCT-116 colon = tested on: HCT-116 colon
LOX IMVI melanoma = tested on: LOX IMVI melanoma
K-562 leukemia = tested on: K-562 leukemia
HL-60(TB) leukemia = tested on: HL-60(TB) leukemia
SK-OV-3 ovarian = tested on: SK-OV-3 ovarian
SF-295 CNS = tested on: SF-295 CNS
NCI-H460 lung = tested on: NCI-H460 lung
MDA-MB-231 breast = tested on: MDA-MB-231 breast
OVCAR-4 ovarian = tested on: OVCAR-4 ovarian
SNB-75 CNS = tested on: SNB-75 CNS
SF-539 CNS = tested on: SF-539 CNS
SW-620 colon = tested on: SW-620 colon
MDA-MB-435 = tested on: MDA-MB-435
MALME-3M melanoma = tested on: MALME-3M melanoma
HOP-62 NSCLC = tested on: HOP-62 NSCLC
RPMI-8226 leukemia = tested on: RPMI-8226 leukemia
HS 578T breast = tested on: HS 578T breast
PC-3 prostate = tested on: PC-3 prostate
A549 NSCLC = tested on: A549 NSCLC
CCRF-CEM leukemia = tested on: CCRF-CEM leukemia
SK-MEL-2 melanoma = tested on: SK-MEL-2 melanoma
OVCAR-8 ovarian = tested on: OVCAR-8 ovarian
M14 melanoma = tested on: M14 melanoma
NCI/ADR-RES ovarian = tested on: NCI/ADR-RES ovarian
NCI-H226 lung = tested on: NCI-H226 lung
SF-268 CNS = tested on: SF-268 CNS
UO-31 renal = tested on: UO-31 renal
SNB-19 CNS = tested on: SNB-19 CNS
MCF7 breast = tested on: MCF7 breast
U251 CNS = tested on: U251 CNS
SR leukemia = tested on: SR leukemia
MDA-N = tested on: MDA-N
CAKI-1 renal = tested on: CAKI-1 renal
EKVX NSCLC = tested on: EKVX NSCLC
TK-10 renal = tested on: TK-10 renal
SK-MEL-28 melanoma = tested on: SK-MEL-28 melanoma
NCI-H522 lung = tested on: NCI-H522 lung
UACC-257 melanoma = tested on: UACC-257 melanoma
A498 renal = tested on: A498 renal
HT29 colon = tested on: HT29 colon
IGROV1 ovarian = tested on: IGROV1 ovarian
UACC-62 melanoma = tested on: UACC-62 melanoma
NCI-H23 lung = tested on: NCI-H23 lung
HCT-15 colon = tested on: HCT-15 colon
HCC-2998 colon = tested on: HCC-2998 colon
KM12 colon = tested on: KM12 colon
OVCAR-5 ovarian = tested on: OVCAR-5 ovarian
MOLT-4 leukemia = tested on: MOLT-4 leukemia
DU-145 prostate = tested on: DU-145 prostate
RXF 393 renal = tested on: RXF 393 renal

Cc1c2cccc-2c2cc(O)c3ccccc3c2n1-c1ccc(N(C)C)cc1
TGI (ACHN renal): 24.9 µM
TGI (T-47D breast): 0.829 µM
TGI (BT-549 breast): 23.3 µM
TGI (SN12C renal): 33.9 µM
TGI (HOP-92 NSCLC): 8 µM
TGI (OVCAR-3 ovarian): 19.1 µM
TGI (SK-MEL-5 melanoma): 24.1 µM
TGI (786-0 renal): 33.1 µM
TGI (COLO 205 colon): 32.6 µM
TGI (HCT-116 colon): 35.4 µM
TGI (LOX IMVI melanoma): 27.8 µM
TGI (K-562 leukemia): 26.8 µM
TGI (HL-60(TB) leukemia): > 100 µM
TGI (SK-OV-3 ovarian): 29.3 µM
TGI (SF-295 CNS): 22.5 µM
TGI (NCI-H460 lung): 59 µM
TGI (MDA-MB-231 breast): 9.75 µM
TGI (OVCAR-4 ovarian): 12.1 µM
TGI (SNB-75 CNS): 17.5 µM
TGI (SF-539 CNS): 27.9 µM
TGI (SW-620 colon): 53.6 µM
TGI (MDA-MB-435): 27.8 µM
TGI (MALME-3M melanoma): 29 µM
TGI (HOP-62 NSCLC): 27.9 µM
TGI (RPMI-8226 leukemia): 26.6 µM
TGI (HS 578T breast): 37.5 µM
TGI (PC-3 prostate): 23.9 µM
TGI (A549 NSCLC): 31.6 µM
TGI (CCRF-CEM leukemia): 32.8 µM
TGI (SK-MEL-2 melanoma): 31.4 µM
TGI (OVCAR-8 ovarian): 33.8 µM
TGI (M14 melanoma): 27.9 µM
TGI (NCI/ADR-RES ovarian): 30.7 µM
TGI (NCI-H226 lung): 24.4 µM
TGI (SF-268 CNS): 32.8 µM
TGI (UO-31 renal): 24.8 µM
TGI (SNB-19 CNS): 30 µM
TGI (MCF7 breast): 17.4 µM
TGI (U251 CNS): 25.9 µM
TGI (SR leukemia): 26.4 µM
TGI (MDA-N): 36.9 µM
TGI (CAKI-1 renal): 31.7 µM
TGI (EKVX NSCLC): 11.7 µM
TGI (TK-10 renal): 32.5 µM
TGI (SK-MEL-28 melanoma): 35 µM
TGI (NCI-H522 lung): 33 µM
TGI (UACC-257 melanoma): > 100 µM
TGI (A498 renal): 30.7 µM
TGI (HT29 colon): 31.4 µM
TGI (IGROV1 ovarian): 14.5 µM
TGI (UACC-62 melanoma): 29.5 µM
TGI (NCI-H23 lung): 18.2 µM
TGI (HCT-15 colon): 20 µM
TGI (HCC-2998 colon): 35.1 µM
TGI (KM12 colon): 23.1 µM
TGI (OVCAR-5 ovarian): 24.7 µM

Cc1nnc2n(c1=O)CCCN2C
TGI (ACHN renal): > 100 µM
TGI (T-47D breast): > 100 µM
TGI (BT-549 breast): > 100 µM
TGI (SN12C renal): > 100 µM
TGI (HOP-92 NSCLC): > 100 µM
TGI (OVCAR-3 ovarian): > 100 µM
TGI (SK-MEL-5 melanoma): > 100 µM
TGI (786-0 renal): > 100 µM
TGI (COLO 205 colon): > 100 µM
TGI (HCT-116 colon): > 100 µM
TGI (LOX IMVI melanoma): > 100 µM
TGI (K-562 leukemia): > 100 µM
TGI (MOLT-4 leukemia): > 100 µM
TGI (HL-60(TB) leukemia): > 100 µM
TGI (SK-OV-3 ovarian): > 100 µM
TGI (SF-295 CNS): > 100 µM
TGI (NCI-H460 lung): > 100 µM
TGI (MDA-MB-231 breast): > 100 µM
TGI (OVCAR-4 ovarian): > 100 µM
TGI (SNB-75 CNS): > 100 µM
TGI (SF-539 CNS): > 100 µM
TGI (SW-620 colon): > 100 µM
TGI (MDA-MB-435): > 100 µM
TGI (MALME-3M melanoma): > 100 µM
TGI (HOP-62 NSCLC): > 100 µM
TGI (RPMI-8226 leukemia): > 100 µM
TGI (HS 578T breast): > 100 µM
TGI (PC-3 prostate): > 100 µM
TGI (A549 NSCLC): > 100 µM
TGI (CCRF-CEM leukemia): > 100 µM
TGI (SK-MEL-2 melanoma): > 100 µM
TGI (OVCAR-8 ovarian): > 100 µM
TGI (M14 melanoma): > 100 µM
TGI (NCI-H226 lung): > 100 µM
TGI (SF-268 CNS): > 100 µM
TGI (UO-31 renal): > 100 µM
TGI (SNB-19 CNS): > 100 µM
TGI (MCF7 breast): > 100 µM
TGI (U251 CNS): > 100 µM
TGI (SR leukemia): > 100 µM
TGI (MDA-N): > 100 µM
TGI (EKVX NSCLC): > 100 µM
TGI (DU-145 prostate): > 100 µM
TGI (TK-10 renal): > 100 µM
TGI (SK-MEL-28 melanoma): > 100 µM
TGI (HT29 colon): > 100 µM
TGI (IGROV1 ovarian): > 100 µM
TGI (UACC-62 melanoma): > 100 µM
TGI (NCI-H23 lung): > 100 µM
TGI (HCT-15 colon): > 100 µM
TGI (RXF 393 renal): > 100 µM
TGI (HCC-2998 colon): > 100 µM
TGI (KM12 colon): > 100 µM
TGI (OVCAR-5 ovarian): > 100 µM
